In assay [1] the target is T1, rFAAH (Rattus norvegicus, UniProt P97612).
T1 construct: from tissue; host or cells: rat brain membranes
T1 sequence (P97612 1-579): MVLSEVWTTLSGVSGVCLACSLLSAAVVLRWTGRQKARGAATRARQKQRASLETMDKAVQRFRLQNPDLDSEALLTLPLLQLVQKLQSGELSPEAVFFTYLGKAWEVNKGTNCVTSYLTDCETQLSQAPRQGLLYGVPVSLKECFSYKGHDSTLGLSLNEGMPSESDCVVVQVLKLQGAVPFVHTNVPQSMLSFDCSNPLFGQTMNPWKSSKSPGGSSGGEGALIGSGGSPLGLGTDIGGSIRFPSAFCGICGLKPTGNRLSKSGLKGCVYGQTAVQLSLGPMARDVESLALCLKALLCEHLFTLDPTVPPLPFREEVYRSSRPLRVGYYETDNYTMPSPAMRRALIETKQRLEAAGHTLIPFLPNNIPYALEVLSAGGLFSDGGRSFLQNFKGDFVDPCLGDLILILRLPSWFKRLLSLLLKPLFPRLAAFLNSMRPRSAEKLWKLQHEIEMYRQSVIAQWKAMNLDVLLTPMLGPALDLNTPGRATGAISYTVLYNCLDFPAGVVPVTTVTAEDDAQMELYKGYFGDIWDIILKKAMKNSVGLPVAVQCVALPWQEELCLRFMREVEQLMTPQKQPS
The assay is described as follows: FAAH activity assay, rat brain membranes, [14C]AEA hydrolysis. The settings on record: for % In Vitro Inhibition (At 100 µm): rFAAH, compound at 100 µm. Format: biochemical. The procedure:
(§1) Rat brains were homogenized in 50 mM Tris-HCl (50 mM, pH 7.4), and were centrifuged sequentially at 800× g and 20,000× g; then, the supernatants were discharged, and rFAAH activity was tested in membrane preparations incubated with 10 µM [^14C]AEA at 37 °C for 15 min (pH = 9.0). The reaction was stopped with a 1:1 (v/v) mixture of chloroform/methanol and the release of [^14C]ethanolamine in the aqueous phase was measured as reported. Purified human FAAH was assayed in the same way as rFAAH.

Assay [2] deals with T2, hFAAH (Homo sapiens, UniProt O00519).
T2 construct: purchased Cayman Chemical Company
T2 sequence (O00519 1-579): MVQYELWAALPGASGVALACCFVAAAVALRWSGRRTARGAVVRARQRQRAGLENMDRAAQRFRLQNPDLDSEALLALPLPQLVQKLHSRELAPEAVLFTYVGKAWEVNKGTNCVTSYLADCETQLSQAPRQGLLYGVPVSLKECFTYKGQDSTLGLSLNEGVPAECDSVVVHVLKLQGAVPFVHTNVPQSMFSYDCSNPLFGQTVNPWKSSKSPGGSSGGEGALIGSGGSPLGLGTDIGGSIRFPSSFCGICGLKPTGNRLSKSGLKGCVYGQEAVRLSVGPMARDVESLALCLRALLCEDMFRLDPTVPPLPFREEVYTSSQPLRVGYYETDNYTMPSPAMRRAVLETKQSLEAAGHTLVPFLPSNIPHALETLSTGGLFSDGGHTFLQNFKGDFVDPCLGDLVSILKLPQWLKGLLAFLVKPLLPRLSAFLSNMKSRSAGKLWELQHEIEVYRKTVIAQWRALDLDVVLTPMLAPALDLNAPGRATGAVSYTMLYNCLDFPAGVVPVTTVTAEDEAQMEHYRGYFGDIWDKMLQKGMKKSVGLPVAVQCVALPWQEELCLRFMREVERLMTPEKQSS
In words: FAAH activity assay, purified human FAAH, [14C]AEA hydrolysis. Format: biochemical. The procedure: as §1

For assay [3], the system named is TRPA1 channels. Details: method as in PMID 21726418. The settings on record: read-out: EC50, agonist of TRPA1 channels; cited from earlier work.
For assay [4], the system named is FAAH. Details: method as in PMID 21392988. Conditions: non-covalent inhibitor co-crystallized in 3QK5; read-out: half-maximal inhibitory concentration (IC50); cited from earlier work.
Where [5] appears, read: rat brain membranes, 10 µM [14C]AEA, 37 °C, 15 min, pH 9.0, dose-response 0–100 µM, read-out: IC50 Towards rFAAH.
Where [6] appears, read: purified human FAAH, 10 µM [14C]AEA, 37 °C, 15 min, pH 9.0, dose-response 0–100 µM, read-out: IC50 Towards hFAAH.

Like-named read-outs stand apart in the source and are kept apart here.

Consider eight compounds from paper PMC7795171, “In Silico and In Vitro Analysis of Major Cannabis-Derived Compounds as Fatty Acid Amide Hydrolase Inhibitors” (Molecules, 2020).

By inhibition is commonly meant how much of the control response was suppressed. As usually defined, the EC50 is the concentration needed to bring the measured effect to its halfway point.

With `C=C1CC/C=C(\C)CC[C@@H]2[C@@H]1CC2(C)C` [BCP, β-caryophyllene], the “% In Vitro Inhibition (At 100 µm)” value in assay [1] is on record as 18%. Further, the IC50 in assay [1] (setting [5]) and in assay [2] (setting [6]) was more than 100 µM throughout.
`CCCCCc1cc(O)c2c(c1)OC(C)(C)c1ccc(C)cc1-2` [CBN, cannabinol]: in assay [1], the IC50 stood at 60 ± 10 µM and the “% In Vitro Inhibition (At 100 µm)” value amounted to 65%. The compound further returned an IC50 in assay [2] of approximately 100 µM.
Regarding `C=C(C)[C@@H]1CCC(C)=C[C@H]1c1c(O)cc(CCCCC)cc1O` [CBD, cannabidiol, reference compound], in assay [2] (setting [6]), the IC50 was more than 100 µM.
Consider `NC(=O)c1cccc(-c2cccc(OC(=O)NC3CCCCC3)c2)c1` [URB597, reference compound], for which, in assay [2] (read-out: Inhibition of hFAAH activity compared to controls), the inhibition at 10 µM is more than 99.5%.
For the compound `CCCCCc1cc(O)c2c(c1)OC(C)(CCC=C(C)C)C=C2` (stereo not shown) [CBC, cannabichromene], the “% In Vitro Inhibition (At 100 µm)” value in assay [1] came to 51%. Besides, the IC50 in assay [1] (setting [5]) is approximately 100 µM; in assay [2] (setting [6]) it was more than 100 µM. For the same compound, the concentration giving a half-maximal response (EC50) in assay [3] is 0.09 µM.
For `Cc1c([C@H]2CCCN(c3nccc(-c4cc5ccccc5s4)n3)C2)c2cccnc2n1CC#N` [QK5], the IC50 in assay [4] was 0.018 µM.
On to `CCCc1cc(O)c2c(c1)OC(C)(C)[C@@H]1CCC(C)=C[C@@H]21` [THCV, Δ^9-tetrahydrocannabivarin], for which, in assay [1], the IC50 is more than 100 µM and the “% In Vitro Inhibition (At 100 µm)” value is given as 30%. In addition, in assay [2], the IC50 was more than 100 µM.
On to `CCCCCc1cc(O)c(C/C=C(\C)CCC=C(C)C)c(O)c1` [CBG, cannabigerol], for which, in assay [1], the “% In Vitro Inhibition (At 100 µm)” value is reported as 53%. Further, the IC50 is approximately 100 µM in assay [1] (setting [5]) and more than 100 µM in assay [2] (setting [6]).
